Tests used:
[1] = tested on: Gloeophyllum trabeum (ATCC 11539); experiment: Soil block decay test (AWPA E10-87), brown rot; assay type: cell-based; settings: for Comparison with zinc borate against G. trabeum: after leaching
From the text: (§1) Wood flakeboard was manufactured by conventional wood processing techniques, incorporating various borates at a range of concentrations, from 0.5 to 2.0% boric acid equivalent (BAE). Boric acid (H3BO3) equivalent is a commonly used convention for comparing various borates on an equivalent contained-boron basis. For each borate/loading combination, fifteen pounds of aspen (Populus tremuloides) furnish having an average particle size of about 2.5×0.75×0.025 inches, was blended with 0.75 pounds (5%) Rubinate 1840 (product of ICI), a polymeric methylene diphenyl diisocyanate adhesive, 0.11 pounds (0.75%) of Cascowax EW 403HS (product of Borden) and various concentrations of nine test borates. For each borate/loading combination, three 18″×18″ composite boards of 0.5 inch thickness were formed by pressing for 210 seconds at (180 seconds pressure, 30 seconds pressure release) at 204.5° C. (the pressure was kept in excess of 6000 psi during the pressure cycle). Each board was trimmed to 15″×15″ and cut to produce internal bond and analytical/soil block specimens for evaluation. Replicates were cut from the inner portion of the boards. Four internal bond, two leaching panels and twenty analytical/soil block specimens were cut from each board.
(§2) The panels to be leached (4.5″×4.5″) were edge sealed with an epoxy sealant and leached for two weeks. Leaching began with pressure treatment of the specimens with water for 30 minutes under vacuum and one hour under pressure. The specimens were removed from the pressure treatment chamber and the residual water was changed after two hours, then daily for the remainder of the leaching period. Afterward, they were trimmed to remove the sealed edges and cut into analytical/soil block test samples. Unleached and leached analytical/soil block samples for each board type were separately randomized. Fifteen were analyzed for borate content and ten were retained for the soil block decay test.
(§3) The soil block test was conducted in accordance with AWPA E10-87, with the exception that soil block dimensions were 1.0″×1.0″×0.5″. The fungi used were Gloeophyllum trabeum (ATCC 11539) for brown rot test and Trametes versicolor (MAD 697) for white rot test. An untreated composite control was run both unleached and leached. Solid southern yellow pine and birch were also run as unleashed controls against G. trabeum and T. versicolor, respectively as a test of fungal vigor.

[2] = tested on: Trametes versicolor (MAD 697); experiment: Soil block decay test (AWPA E10-87), white rot; assay type: cell-based; settings: for Comparison with zinc borate against T. versicolor: after leaching
From the text: as §1, §2, §3

[3] = Borate content of composite after two weeks water leaching; assay type: physicochemical; settings: leached two weeks
Description: as §2

[4] = Bulk solids flow testing, J. R. Johanson Indicizer System; assay type: physicochemical; settings: for Hopper Index Stainless Steel / Chute Index Stainless Steel: 304-2B Stainless Steel; for Hopper Index Stainless Steel / Hopper Index Plastic / Hopper Index Carbon Steel: maximum angle from the vertical, larger is better; for Chute Index Stainless Steel / Chute Index Plastic / Chute Index Carbon Steel: minimum angle from horizontal, smaller is better; for Hopper Index Plastic / Chute Index Plastic: Tivar UHMWPE plastic; for Hopper Index Carbon Steel / Chute Index Carbon Steel: aged carbon steel; for Arching Index / Ratholing Index: multiple of the discharge opening, less than 1 necessary for free flow, average of 3-6 tests
From the text: Bulk solids flow testing was done using the J. R. Johanson Indicizer System, including a Hang-up Indicizer and Hopper Indicizer, manufactured by J R Johanson, Inc. 712 Fiero Lane #37, San Luis Obispo, Calif. 93401. The test procedures are described in detail in their company literature (BULK SOLIDS INDICES TESTING, Hang-up Indicizer™ Instruction Manual ©JR Johanson, Inc. 1991 and BULK SOLIDS INDICES TESTING, Hopper Indicizer™ Instruction Manual ©JR Johanson, Inc. 1991). The results are presented in the following Table 3 as the Arching Index, Ratholing Index, Hopper Index and Chute Index, which are the average of several tests (3-6). The meaning and usefulness of these flow indices in evaluating the flow properties of bulk solids are also described in literature from JR Johanson, Inc., including Binside Scoop™, Vol. 7, No. 2, Fall 1994, Binside Scoop™, Vol. 8, No. 3, Winter 1995, and “Bulk solids Flow Indices—A Simplified Evaluation system”, by Jerry R. Johanson, ©JR Johanson, 1991.
Arching Index—A tendency of a cohesive material is to plug up the opening of a bin by forming an “arch” over the discharge opening. The arching index is given as a multiple of the discharge opening, so less than 1 is necessary for free flow. Numbers greater than 1 reflect a need to enlarge the opening.
Ratholing Index—A tendency of a cohesive material is to hang up on the sides of a bin while an open hole forms in the center and flow ceases. Rathole indices are also given as a multiple of the discharge opening and a number of less than 1 is necessary for free flow. Numbers greater than 1 mean the bins should be redesigned.
Hopper Index—The maximum angle, measured in degrees from the vertical, that is required for the conical portion of a hopper in order to produce reliable mass flow. A larger number is better.
Chute Index—The minimum angle, measured in degrees from horizontal, required for flow down a chute and to prevent material buildup at impact areas. A smaller number is better. Chute indices may often be close to the angle of repose.
Both hopper and chute indices measurements involve friction over a specified surface and measurements are made using substrates of the material of construction. The substrates used for these tests are 304-2B Stainless Steel, aged carbon steel and Tivar UHMWPE (ultra high molecular weight polyethylene) plastic.

[5] = leached two weeks, target loading 0.5% BAE (0.09% B)
[6] = leached two weeks, target loading 1.0% BAE (0.17% B)
[7] = leached two weeks, target loading 2.0% BAE (0.35% B)
[8] = unleached aspen flakeboard, target loading 0.5% BAE (0.09% B)
[9] = unleached aspen flakeboard, target loading 1.0% BAE (0.17% B)
[10] = unleached aspen flakeboard, target loading 2.0% BAE (0.35% B)
[11] = target loading 0.5% BAE (0.09% B)
[12] = target loading 1.0% BAE (0.17% B)
[13] = target loading 2.0% BAE (0.35% B)

Substance | Comparison with zinc borate against G. trabeum [1] | Mean % Wt. Loss G. trabeum [1, 5] | Mean % Wt. Loss G. trabeum [1, 6] | Mean % Wt. Loss G. trabeum [1, 7] | Mean % Wt. Loss G. trabeum [1, 8] | Mean % Wt. Loss G. trabeum [1, 9] | Mean % Wt. Loss G. trabeum [1, 10] | Comparison with zinc borate against T. versicolor [2] | Mean % Wt. Loss T. versicolor [2, 5] | Mean % Wt. Loss T. versicolor [2, 6] | Mean % Wt. Loss T. versicolor [2, 7] | Mean % Wt. Loss T. versicolor [2, 8] | Mean % Wt. Loss T. versicolor [2, 9] | Mean % Wt. Loss T. versicolor [2, 10] | Assay % B [3, 11] | Assay % B [3, 12] | Assay % B [3, 13] | Chute Index Plastic [4] | also measured
Colemanite [Colemanite (1)] | roughly comparable to zinc borate | 5.5% | 1.5% | 1.0% | 0.6% | 1.0% | 1.5% | roughly comparable to zinc borate | 27.5% | 8.4% | 2.5% | 3.9% | 3.7% | 2.4% | 0.03 % B | 0.07 % B | 0.19 % B | 90 degrees | Hopper Index Stainless Steel ([4]; Glass Grade): 14 degrees; Chute Index Stainless Steel ([4]; Glass Grade): 76 degrees; Hopper Index Plastic ([4]; Glass Grade): 8 degrees; Hopper Index Carbon Steel ([4]; Glass Grade): 3 degrees; Chute Index Carbon Steel ([4]; Glass Grade): 82 degrees; Arching Index ([4]; Glass Grade): 0.7; Ratholing Index ([4]; Glass Grade): 4.7
Colemanite [Colemanite (2)] | roughly comparable to zinc borate | 3.4% | 1.6% | 1.3% | 0.8% | 0.6% | 1.1% | roughly comparable to zinc borate | 19.9% | 5.1% | 2.2% | 5.1% | 2.3% | 2.2% | 0.04 % B | 0.08 % B | 0.18 % B | 90 degrees | Hopper Index Stainless Steel ([4]; listed as Colemanite F): 1.3 degrees; Chute Index Stainless Steel ([4]; listed as Colemanite F): 90 degrees; Hopper Index Plastic ([4]; listed as Colemanite F): 4.2 degrees; Hopper Index Carbon Steel ([4]; listed as Colemanite F): 2.7 degrees; Chute Index Carbon Steel ([4]; listed as Colemanite F): 90 degrees; Arching Index ([4]; listed as Colemanite F): 0.4; Ratholing Index ([4]; listed as Colemanite F): 3.9
